Target: T1, bacteriophage T4 DNA polymerase (Enterobacteria phage T4, UniProt P04415)
T1 construct: made in house
T1 sequence (P04415 1-898): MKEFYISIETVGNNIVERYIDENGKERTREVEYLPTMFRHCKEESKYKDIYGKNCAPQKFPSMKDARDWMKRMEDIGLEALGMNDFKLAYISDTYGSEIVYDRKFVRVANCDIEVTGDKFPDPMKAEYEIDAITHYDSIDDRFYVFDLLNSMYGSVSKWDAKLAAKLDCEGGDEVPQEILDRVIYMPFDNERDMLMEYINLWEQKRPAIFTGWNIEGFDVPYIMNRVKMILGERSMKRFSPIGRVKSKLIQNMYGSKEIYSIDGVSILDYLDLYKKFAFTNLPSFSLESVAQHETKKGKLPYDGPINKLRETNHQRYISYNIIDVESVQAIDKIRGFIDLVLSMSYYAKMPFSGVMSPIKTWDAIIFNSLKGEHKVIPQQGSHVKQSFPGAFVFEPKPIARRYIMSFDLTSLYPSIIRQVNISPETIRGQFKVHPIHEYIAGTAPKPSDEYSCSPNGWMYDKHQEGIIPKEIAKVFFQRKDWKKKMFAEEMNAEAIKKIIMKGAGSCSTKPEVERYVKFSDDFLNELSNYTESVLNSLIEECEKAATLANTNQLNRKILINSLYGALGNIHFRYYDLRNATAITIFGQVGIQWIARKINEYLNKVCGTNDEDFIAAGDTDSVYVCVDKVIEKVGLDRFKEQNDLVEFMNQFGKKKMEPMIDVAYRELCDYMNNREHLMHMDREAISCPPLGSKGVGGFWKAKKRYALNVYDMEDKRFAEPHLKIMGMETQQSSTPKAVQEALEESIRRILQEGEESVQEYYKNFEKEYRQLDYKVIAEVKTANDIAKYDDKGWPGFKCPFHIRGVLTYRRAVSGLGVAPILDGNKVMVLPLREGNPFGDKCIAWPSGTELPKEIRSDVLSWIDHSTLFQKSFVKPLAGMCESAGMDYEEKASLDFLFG
Assay: Counter-screen against bacteriophage T4 DNA polymerase
Assay type: biochemical
Details: for % inhibition T4 10' 2.5 / % inhibition T4 10' 5 / % inhibition T4 10' 10 / % inhibition T4 10' 20 / % inhibition T4 10' 40 / % inhibition T4 10' 80: read at 10'
In short: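 IC50 values come from dose-response testing of each compound against T4 DNA polymerase. This B-family polymerase was purified in-house and used as the counter-screen.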

## CC(=O)c1cc2c(N)c(/C(N)=N/C#N)sc2nc1C [KU0015866]
DRC-2, concentration 2.5
  % inhibition T4 10': -16%
  % inhibition T4 40': -16%
  % inhibition T4 180': -20%
DRC-2, concentration 5
  % inhibition T4 10': -17%
  % inhibition T4 40': -17%
  % inhibition T4 90': -16%
  % inhibition T4 180': -23%
DRC-2, concentration 10
  % inhibition T4 10': -18%
  % inhibition T4 40': -18%
  % inhibition T4 90': -18%
DRC-2, concentration 20
  % inhibition T4 10': -17%
  % inhibition T4 40': -17%
  % inhibition T4 90': -18%
  % inhibition T4 180': -23%
DRC-2, concentration 40
  % inhibition T4 10': -11%
  % inhibition T4 40': -11%
  % inhibition T4 90': -11%
  % inhibition T4 180': -16%
DRC-2, concentration 80
  % inhibition T4 10': -21%
  % inhibition T4 40': -21%
  % inhibition T4 90': -20%

## O=C1CCCC2=C1C(c1ccccn1)C1=C(CCCC1=O)O2 [KU0194228]
DRC-2, concentration 10
  % inhibition T4 10': 18%
DRC-2, concentration 20
  % inhibition T4 40': 18%

## CC(C)(C)OC(=O)COc1ccc2cc(-c3ccccc3)c(=O)oc2c1 [Molecule 81, O=C(OC(C)(C)C)COc1ccc2c(c1)oc(=O)c(c2)c1ccccc1]
DRC-2, concentration 10
  % inhibition T4 10': 13%
  % inhibition T4 40': 10%
  % inhibition T4 90': 10%
  % inhibition T4 180': 7%
DRC-2, concentration 40
  % inhibition T4 10': 7%
DRC-2, concentration 2.5
  % inhibition T4 40': 16%
  % inhibition T4 90': 16%
  % inhibition T4 180': 13%
DRC-2, concentration 5
  % inhibition T4 40': 13%
  % inhibition T4 90': 13%
DRC-2, concentration 20
  % inhibition T4 40': 6%
  % inhibition T4 90': 6%
DRC-2, concentration 80
  % inhibition T4 40': 6%

## Cc1cc2[nH]c(C(=O)Nc3ccc(F)cc3)c(CN3CCOCC3)c2s1 [Molecule 60, Fc1ccc(cc1)NC(=O)c1[nH]c2c(c1CN1CCOCC1)sc(c2)C]
DRC-1, concentration 2.5
  % inhibition T4 10' 2.5: 1.711%
DRC-1, concentration 5
  % inhibition T4 10' 5: 9.215%
DRC-1, concentration 10
  % inhibition T4 10' 10: 21.452%
DRC-1, concentration 20
  % inhibition T4 10' 20: 34.4714%
DRC-1, concentration 40
  % inhibition T4 10' 40: 38.1099%
DRC-1, concentration 80
  % inhibition T4 10' 80: 40.6852%
DRC-1, read at 70', concentration 2.5
  % inhibition T4 70' 2.5: 0.0854%
DRC-1, read at 70', concentration 5
  % inhibition T4 70' 5: 3.336%
DRC-1, read at 70', concentration 10
  % inhibition T4 70' 10: 13.8719%
DRC-1, read at 70', concentration 20
  % inhibition T4 70' 20: 20.2889%
DRC-1, read at 70', concentration 40
  % inhibition T4 70' 40: 27.4388%
DRC-1, read at 70', concentration 80
  % inhibition T4 70' 80: 27.0179%
DRC-1, read at 130', concentration 2.5
  % inhibition T4 130' 2.5: -1.799%
DRC-1, read at 130', concentration 5
  % inhibition T4 130' 5: 0.5371%
DRC-1, read at 130', concentration 10
  % inhibition T4 130' 10: 9.245%
DRC-1, read at 130', concentration 20
  % inhibition T4 130' 20: 15.4607%
DRC-1, read at 130', concentration 40
  % inhibition T4 130' 40: 21.1797%
DRC-1, read at 130', concentration 80
  % inhibition T4 130' 80: 22.3923%
DRC-2, concentration 2.5
  % inhibition T4 10' 2.5: 5.28%
DRC-2, concentration 5
  % inhibition T4 10' 5: 2.77%
DRC-2, concentration 10
  % inhibition T4 10' 10: 13%
DRC-2, concentration 20
  % inhibition T4 10' 20: 21%
DRC-2, concentration 40
  % inhibition T4 10' 40: 25%
DRC-2, concentration 80
  % inhibition T4 10' 80: 25%
DRC-2, read at 40', concentration 2.5
  % inhibition T4 40' 2.5: 3.64%
DRC-2, read at 40', concentration 5
  % inhibition T4 40' 5: 2.11%
DRC-2, read at 40', concentration 10
  % inhibition T4 40' 10: 12%
DRC-2, read at 40', concentration 20
  % inhibition T4 40' 20: 21%
DRC-2, read at 40', concentration 40
  % inhibition T4 40' 40: 26%
DRC-2, read at 40', concentration 80
  % inhibition T4 40' 80: 27%
DRC-2, read at 90', concentration 2.5
  % inhibition T4 90' 2.5: 4%
DRC-2, read at 90', concentration 5
  % inhibition T4 90' 5: 2.34%
DRC-2, read at 90', concentration 10
  % inhibition T4 90' 10: 12%
DRC-2, read at 90', concentration 20
  % inhibition T4 90' 20: 19%
DRC-2, read at 90', concentration 40
  % inhibition T4 90' 40: 24%
DRC-2, read at 90', concentration 80
  % inhibition T4 90' 80: 25%
DRC-2, read at 180', concentration 2.5
  % inhibition T4 180' 2.5: -1.07%
DRC-2, read at 180', concentration 5
  % inhibition T4 180' 5: -2.8%
DRC-2, read at 180', concentration 10
  % inhibition T4 180' 10: 6%
DRC-2, read at 180', concentration 20
  % inhibition T4 180' 20: 13%
DRC-2, read at 180', concentration 40
  % inhibition T4 180' 40: 20%
DRC-2, read at 180', concentration 80
  % inhibition T4 180' 80: 23%

## O=C(NC(C(Cl)Cl)S(=O)(=O)c1ccccc1)c1ccccc1 (centres unmarked) [KU0045239]
DRC-2, concentration 10
  % inhibition T4 10': -19%
  % inhibition T4 40': -19%
  % inhibition T4 180': -18%
DRC-2, concentration 5
  % inhibition T4 40': -21%
  % inhibition T4 90': -17%
  % inhibition T4 180': -21%
DRC-2, concentration 20
  % inhibition T4 40': -26%
  % inhibition T4 90': -18%
  % inhibition T4 180': -17%
DRC-2, concentration 40
  % inhibition T4 40': -26%
  % inhibition T4 90': -18%
DRC-2, concentration 2.5
  % inhibition T4 90': -26%

## Cc1cccc2c(C(=O)NC(C)C)cc(N(C)C)nc12 [Molecule 47, CC(NC(=O)c1cc(nc2c1cccc2C)N(C)C)C]
DRC-2, concentration 20
  % inhibition T4 10': 28%
DRC-2, concentration 40
  % inhibition T4 10': 30%
  % inhibition T4 90': 31%
DRC-2, concentration 80
  % inhibition T4 10': 30%
  % inhibition T4 90': 31%
  % inhibition T4 180': 28%

## COc1ccc(C(=O)N2CCc3c(nc4cc(-c5ccccc5Cl)[nH]n4c3=O)C2)cn1 [Molecule 26, COc1ccc(cn1)C(=O)N1CCc2c(C1)nc1n(c2=O)[nH]c(c1)c1ccccc1Cl]
DRC-2, concentration 2.5
  % inhibition T4 10': -4%
  % inhibition T4 40': -4%
DRC-2, concentration 10
  % inhibition T4 10': -17%
  % inhibition T4 180': -10%
DRC-2, concentration 40
  % inhibition T4 40': -23%
  % inhibition T4 180': -17%
DRC-2, concentration 5
  % inhibition T4 90': -10%
DRC-2, concentration 80
  % inhibition T4 90': -23%
  % inhibition T4 180': -17%

## COc1ccc(-c2n[nH]cc2Oc2ccc(Cl)cc2)c(O)c1 [KU0029837]
DRC-2, concentration 2.5
  % inhibition T4 10': -22%
  % inhibition T4 40': -22%
  % inhibition T4 90': -22%
  % inhibition T4 180': -26%
DRC-2, concentration 5
  % inhibition T4 10': -28%
  % inhibition T4 40': -28%
DRC-2, concentration 10
  % inhibition T4 10': -25%
  % inhibition T4 40': -25%
  % inhibition T4 90': -26%
  % inhibition T4 180': -30%
DRC-2, concentration 20
  % inhibition T4 10': -25%
  % inhibition T4 40': -25%
  % inhibition T4 90': -25%
  % inhibition T4 180': -30%
DRC-2, concentration 40
  % inhibition T4 10': -19%
  % inhibition T4 40': -19%
DRC-2, concentration 80
  % inhibition T4 10': -34%
  % inhibition T4 40': -34%
  % inhibition T4 90': -34%

## COc1ccc(CNC(=O)Cn2nc3c(c2NC(=O)Cc2cccs2)CSC3)cc1 [Molecule 55, COc1ccc(cc1)CNC(=O)Cn1nc2c(c1NC(=O)Cc1cccs1)CSC2]
DRC-2, concentration 5
  % inhibition T4 10': 18%
DRC-2, concentration 10
  % inhibition T4 10': 26%
  % inhibition T4 40': 26%
  % inhibition T4 180': 18%
DRC-2, concentration 20
  % inhibition T4 10': 26%
  % inhibition T4 40': 28%
  % inhibition T4 90': 26%
DRC-2, concentration 80
  % inhibition T4 40': 38%
  % inhibition T4 90': 38%
DRC-2, concentration 40
  % inhibition T4 180': 28%
